Converted amounts (≈) assume the structure as drawn. Like-named read-outs stand apart in the source and are kept apart here.
Experiments:
Solubility in PBS = assay type: physicochemical
In short: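 PBS sample ultracentrifuged; supernatant run on HPLC vs. 50 μM peptide in DMSO standard. Solubility = (PBS peak area / DMSO peak area) × 50 uM.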

CHI Log D procedure = assay type: physicochemical
[1] = target: T1, full-length beta-Catenin (Uniprot ID P35222) (Homo sapiens, UniProt P35222); experiment: Fluorescence polarization IC50 (beta-catenin / 5FAM-TCF4 10-53 competition); assay type: binding
T1 construct: 10 nM full-length beta-Catenin (Uniprot ID P35222)
T1 sequence (P35222 1-781): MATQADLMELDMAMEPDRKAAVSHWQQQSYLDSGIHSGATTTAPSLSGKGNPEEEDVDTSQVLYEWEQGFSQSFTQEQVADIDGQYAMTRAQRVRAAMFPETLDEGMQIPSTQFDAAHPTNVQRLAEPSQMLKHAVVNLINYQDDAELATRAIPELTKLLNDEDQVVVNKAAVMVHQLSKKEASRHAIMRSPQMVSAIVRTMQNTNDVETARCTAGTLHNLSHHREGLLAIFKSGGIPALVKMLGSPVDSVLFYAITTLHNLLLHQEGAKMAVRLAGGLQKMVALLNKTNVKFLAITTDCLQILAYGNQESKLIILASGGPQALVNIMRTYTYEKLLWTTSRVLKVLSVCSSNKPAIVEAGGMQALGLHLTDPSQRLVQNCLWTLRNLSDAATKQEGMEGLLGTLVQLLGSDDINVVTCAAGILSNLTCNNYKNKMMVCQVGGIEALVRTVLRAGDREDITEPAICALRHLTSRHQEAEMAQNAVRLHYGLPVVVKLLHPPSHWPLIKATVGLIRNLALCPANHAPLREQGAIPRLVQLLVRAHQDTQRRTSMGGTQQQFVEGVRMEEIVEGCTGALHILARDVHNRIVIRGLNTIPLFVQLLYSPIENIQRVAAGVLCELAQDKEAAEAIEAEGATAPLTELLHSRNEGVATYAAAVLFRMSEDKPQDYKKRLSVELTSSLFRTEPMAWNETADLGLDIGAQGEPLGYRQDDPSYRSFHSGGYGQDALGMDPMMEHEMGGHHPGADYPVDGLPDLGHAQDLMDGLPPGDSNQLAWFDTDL

[2] = fluorescence polarization, beta-catenin, read-out: FP EC50
[3] = fluorescence polarization, read-out: beta-Catenin FP IC50

| Compound | Solubility (Solubility in PBS) | CHI Log D (CHI Log D procedure; pH 7.4) | IC50 [1, 3] | IC50 ([1]; read-out: FP EC50) | Solubility (Solubility in PBS; Solubility (uM)) | chromatographic logD (CHI Log D procedure; pH 7.4, CHI Log D) | also measured |
| --- | --- | --- | --- | --- | --- | --- | --- |
| CC(=O)N1CCC[C@]12CC=CCCCC1(CCCC=CCCCOC(=O)N3CC[C@@](C(=O)N[C@@H](Cc4ccsc4)C(=O)N[C@@H](Cc4csc5ccccc45)C(=O)N[C@@H](CCC(N)=O)C(N)=O)(C3)NC(=O)[C@H]([C@@H](C)O)NC(=O)[C@H](Cc3ccccc3)NC(=O)[C@H](C)NC(=O)[C@H](C)NC(=O)[C@H](Cc3cccc(C(=O)O)c3)NC(=O)[C@H](CC(=O)O)NC1=O)NC(=O)[C@H](CC(C)(C)C)NC(=O)[C@H](CC(=O)O)NC2=O (stereo partly drawn) [I-981, Ac-PL3-Asp-Npg-B5-Asp-3COOHF-Ala-Ala-Phe-Thr-PyrS2-3Thi-BztA-Gln-NH2] | 45 µM (≈ 89.2 µg/mL) | 1.761 | – | – | – | – | IC50 [1, 2]: 199 nM; IC50 ([1]; read-out: beta-Catenin FP IC50): 374 nM |
| CC(=O)N1CCC[C@]12CC=CCCCC1(CCCC=CCCCOC(=O)N3CC[C@@](C(=O)N[C@@H](Cc4ccsc4)C(=O)N[C@@H](Cc4csc5ccccc45)C(=O)N[C@@H](CCCCNC(=O)CN=[N+]=[N-])C(N)=O)(C3)NC(=O)[C@H](CC(N)=O)NC(=O)[C@H](Cc3ccccc3)NC(=O)[C@H](C)NC(=O)[C@H](C)NC(=O)[C@H](CC(=O)O)NC(=O)[C@H](CC(=O)O)NC1=O)NC(=O)[C@H](CC(C)(C)C)NC(=O)[C@H](CC(=O)O)NC2=O (stereo partly drawn) [I-878, Ac-PL3-Asp-Npg-B5-Asp-Asp-Ala-Ala-Phe-Asn-PyrS2-3Thi-BztA-[AzAc]Lys-NH2] | 46 µM (≈ 92.1 µg/mL) | – | – | – | – | – | chromatographic logD (CHI Log D procedure; pH 7.4): 2.09; IC50 ([1]; FP EC50 (nM), fluorescence polarization, beta-catenin): 6 nM |
| CC[C@H](C)[C@@H]1NC(=O)[C@H](CC(=O)O)NC(=O)[C@]2(CC=CCCCC3(CCCC=CCCCCCC[C@@](C)(C(=O)N[C@@H](Cc4ccccc4)C(=O)N[C@@H](Cc4csc5ccccc45)C(=O)N[C@@H](CCC(N)=O)C(N)=O)NC(=O)[C@H](CCC(N)=O)NC(=O)[C@H](Cc4ccccc4)NC(=O)[C@H](C)NC(=O)[C@H](C)NC(=O)[C@H](CCCNC(N)=O)NC(=O)[C@H](CC(=O)O)NC3=O)NC1=O)CCCN2C(C)=O (stereo partly drawn) [I-604, Ac-PL3-Asp-Ile-B5-Asp-Cit-Ala-Ala-Phe-Gln-S8-Phe-BztA-Gln-NH2] | 10 µM (≈ 19.1 µg/mL) | 2.609 | 692 nM | 692 nM | – | – | – |
| CC(=O)N1CCC[C@]12CC=CCCCC1(CCCC=CCCCOC(=O)N3CC[C@@](C(=O)N[C@@H](Cc4ccsc4)C(=O)N[C@@H](Cc4csc5ccccc45)C(N)=O)(C3)NC(=O)[C@H](CC(N)=O)NC(=O)[C@H](Cc3ccccc3)NC(=O)[C@H](C)NC(=O)[C@H](C)NC(=O)[C@H]([C@@H](C)O)NC(=O)[C@H](CC(=O)O)NC1=O)NC(=O)[C@H](CC(C)(C)C)NC(=O)[C@H](CC(=O)O)NC2=O (stereo partly drawn) [I-860, Ac-PL3-Asp-Npg-B5-Asp-Thr-Ala-Ala-Phe-Asn-PyrS2-3Thi-BztA-NH2] | 10 µM (≈ 17.8 µg/mL) | 2.722 | – | – | – | – | IC50 [1, 2]: 61 nM; IC50 ([1]; read-out: beta-Catenin FP IC50): 61 nM |
| CC(=O)N1CCC[C@]12CC=CCCCC1(CCCC=CCCCCCC[C@@](C)(C(=O)N[C@@H](Cc3ccccc3)C(=O)N[C@@H](Cc3csc4ccccc34)C(=O)N[C@@H](CCC(N)=O)C(N)=O)NC(=O)[C@H](CC(N)=O)NC(=O)[C@H](Cc3ccccc3)NC(=O)[C@H](C)NC(=O)[C@H](C)NC(=O)[C@H](CNS(C)(=O)=O)NC(=O)[C@H](CC(=O)O)NC1=O)NC(=O)[C@H](C)NC(=O)[C@H](CC(=O)O)NC2=O (stereo partly drawn) [I-533, Ac-PL3-Asp-Ala-B5-Asp-[MeSO2]Dap-Ala-Ala-Phe-Asn-S8-Phe-BztA-Gln-NH2] | – | – | 155 nM | – | 44 µM (≈ 81.9 µg/mL) | 2.29 | – |
| CC(=O)N1CCC[C@]12CC=CCCCC1(CCCC=CCCCCCC[C@@](C)(C(=O)N[C@@H](Cc3ccccc3)C(=O)N[C@@H](Cc3csc4ccccc34)C(=O)N[C@@H](CCC(N)=O)C(N)=O)NC(=O)[C@H](C(C)C)NC(=O)[C@H](Cc3ccccc3)NC(=O)[C@H](C)NC(=O)[C@H](C)NC(=O)[C@H](CC(=O)O)NC(=O)[C@H](CC(=O)NC3CC3)NC1=O)NC(=O)[C@H](C)NC(=O)[C@H](CC(=O)O)NC2=O (stereo partly drawn) [I-538, Ac-PL3-Asp-Ala-B5-[NHCyPr]AsnR-Asp-Ala-Ala-Phe-Val-S8-Phe-BztA-Gln-NH2] | – | – | 5000 nM | – | 33 µM (≈ 60.6 µg/mL) | 2.75 | – |
| CC[C@H](C)[C@@H]1NC(=O)[C@H](CC(=O)O)NC(=O)[C@]2(CC=CCCCC3(CCCC=CCCCCCC[C@@](C)(C(=O)N[C@@H](Cc4ccccc4)C(=O)N[C@@H](Cc4csc5ccccc45)C(=O)N[C@@H](Cc4c[nH]cn4)C(N)=O)NC(=O)[C@H](CCC(N)=O)NC(=O)[C@H](Cc4cccs4)NC(=O)[C@H](C)NC(=O)[C@H](C)NC(=O)[C@H](CC(=O)O)NC(=O)[C@H](CC(=O)O)NC3=O)NC1=O)CCCN2C(C)=O (stereo partly drawn) [I-489, Ac-PL3-Asp-Ile-B5-Asp-Asp-Ala-Ala-2Thi-Gln-S8-Phe-BztA-His-NH2] | – | – | 57 nM | – | 36 µM (≈ 67.8 µg/mL) | 2.34 | – |
| CC[C@H](C)[C@@H]1NC(=O)[C@H](CC(=O)O)NC(=O)[C@]2(CC=CCCCC3(CCCC=CCCCCCC[C@@](C)(C(=O)N[C@@H](Cc4ccsc4)C(=O)N[C@@H](Cc4csc5ccccc45)C(N)=O)NC(=O)[C@H](CC(N)=O)NC(=O)[C@H](Cc4ccccc4)NC(=O)[C@H](C)NC(=O)[C@H](C)NC(=O)[C@H](CCC(=O)O)NC(=O)[C@H](CC(=O)O)NC3=O)NC1=O)CCCN2C(C)=O (stereo partly drawn) [I-721, Ac-PL3-Asp-Ile-B5-Asp-Glu-Ala-Ala-Phe-Asn-S8-3Thi-BztA-NH2] | 28 µM (≈ 48.9 µg/mL) | 2.722 | 46 nM | 46 nM | – | – | – |
| CCC[C@@H]1NC(=O)[C@H](CC(=O)O)NC(=O)[C@]2(CC=CCCCC3(CCCC=CCCCCCC[C@@](C)(C(=O)N[C@@H](Cc4ccccc4)C(=O)N[C@@H](Cc4csc5ccccc45)C(=O)N[C@@H](CCC(N)=O)C(N)=O)NC(=O)[C@H](CCC(N)=O)NC(=O)[C@H](Cc4ccccc4)NC(=O)[C@H](C)NC(=O)[C@H](C)NC(=O)[C@H](CCC(=O)O)NC(=O)[C@H](CC(=O)O)NC3=O)NC1=O)CCCN2C(C)=O (stereo partly drawn) [I-523, Ac-PL3-Asp-Nva-B5-Asp-Glu-Ala-Ala-Phe-Gln-S8-Phe-BztA-Gln-NH2] | 50 µM (≈ 93.5 µg/mL) | 2.241 | 44 nM | 44 nM | – | – | – |
| CC[C@@H](C)[C@@H]1NC(=O)[C@H](CC(=O)O)NC(=O)[C@]2(CC=CCCCC3(CCCC=CCCCCCC[C@@](C)(C(=O)N[C@@H](Cc4ccccc4)C(=O)N[C@@H](Cc4csc5ccccc45)C(=O)N[C@@H](CCC(N)=O)C(N)=O)NC(=O)[C@H](CC(N)=O)NC(=O)[C@H](Cc4ccccc4)NC(=O)[C@H](C)NC(=O)[C@H](C)NC(=O)[C@H](CCC(=O)O)NC(=O)[C@H](CC(=O)O)NC3=O)NC1=O)CCCN2C(C)=O (stereo partly drawn) [I-475, Ac-PL3-Asp-aIle-B5-Asp-Glu-Ala-Ala-Phe-Asn-S8-Phe-BztA-Gln-NH2] | 43 µM (≈ 80.4 µg/mL) | 2.277 | 102 nM | 102 nM | – | – | – |
| CC(=O)N1CCC[C@]12CC=CCCCC1(CCCC=CCCCCCC[C@@](C)(C(=O)N[C@@H](Cc3ccc(C#N)cc3)C(=O)N[C@@H](Cc3csc4ccccc34)C(=O)N[C@@H](CCC(N)=O)C(N)=O)NC(=O)[C@H](C(C)C)NC(=O)[C@H](Cc3ccccc3)NC(=O)[C@H](C)NC(=O)[C@H](C)NC(=O)[C@H](CC(=O)O)NC(=O)[C@H](CC(=O)O)NC1=O)NC(=O)[C@H](C)NC(=O)[C@H](CC(=O)O)NC2=O (stereo partly drawn) [I-359, Ac-PL3-Asp-Ala-B5-Asp-Asp-Ala-Ala-Phe-Val-S8-4CNF-BztA-Gln-NH2] | – | – | – | – | 30 µM (≈ 54.7 µg/mL) | 2.06 | IC50 ([1]; Table E2-1, read-out: beta-Catenin FP IC50): 5000 nM |

— patent US20240116985A1, “STAPLED PEPTIDES AND METHODS THEREOF” (priority 2020, published 2024)
